Test results taken from patent publication US4307016A, “Demethyl maytansinoids” (priority 1978, dated 1981).
Converted amounts (≈) assume the structure as drawn. Like-named read-outs stand apart in the source and are kept apart here.

Experiments:
[1] = system: Hamigera avellanea IFO 7721; test: Antifungal activity, paper disc method (zone of growth inhibition); assay type: cell-based; details: for zone of inhibition at 100 µg/mL: Hamigera avellanea
Description: On the other hand, on agar plates [3.5 g disodium hydrogen phosphate, 0.5 g monopotassium phosphate, 5 g of yeast extract (Difco), 10 g glucose, 15 g agar, 1000 ml distilled water, pH 7.0], the antifungal activity of the test compound was assayed against Hamigera avellanea IFO 7721 by the paper disc method. Thus, on the plates inoculated with the above microorganism, the zones of growth inhibition were determined using paper discs immersed with 0.02 ml of a 100 μg/ml solution of demethylmaytansinoid compound (I).

Tetrahymena pyriformis W = test: Antiprotozoan activity, serial dilution method (MIC); assay type: cell-based
Description: Then, with Tetrahymena pyriformis W as the test organism and a medium composed of 20 g tryptose-peptone (Difco Co.), 1 g yeast extract, 1 g glucose, 1000 ml distilled water, 10 ml 1 M phosphate buffer (pH 7.0) as the assay medium, the microorganism was incubated at 28° C. for 44 to 48 hours and the growth inhibitory activity of demethylmaytansinoid compound (I) was assayed by the serial dilution method.

Solubility = details: for Solubility in chloroform, ethyl acetate, acetone, ethanol, methanol, pyridine, tetrahydrofuran & dimethylsulfoxide: organic solvents (Table 3); for Solubility in petr. ether, n-hexane & water: n-hexane & water (Table 3); for Solubility in benzene, ether: ether (Table 4); for Solubility in chloroform, ethyl acetate, tetrahydrofuran, acetone, ethanol, methanol: organic solvents (Table 4); for Solubility in pyridine, dimethyl sulfoxide: dimethyl sulfoxide (Table 4)
[2] = IFO7721, read-out: Antifungal activity, (φ mm), zone of growth inhibition, paper disc (8 mm diam.), 0.02 ml of a 100 μg/ml solution
[3] = pH 7, read-out: Antiprotozoan activity, MIC
[4] = IFO7721, paper disc (8 mm diam.), 0.02 ml of a 100 μg/ml solution, read-out: Antifungal activity, (φ mm), zone of growth inhibition

Row | Structure (SMILES) | zone of inhibition at 100 µg/mL [1, 2] [mm] | MIC (Tetrahymena pyriformis W; [3]) [µg/mL] | also measured
1 | CCC(=O)N(C)[C@@H](C)C(=O)OC1CC(=O)N(C)c2cc(cc(O)c2Cl)CC(C)=CC=CC(OC)C2(O)CC(OC(=O)N2)C(C)C2OC12C (stereo partly shown) [20-Demethoxy-20-hydroxymaytanprine (L)] | 23 |  | 
2 | COC1C=CC=C(C)Cc2cc(O)c(Cl)c(c2)N(C)C(=O)CC(OC(=O)c2ccccn2)C2(C)OC2C(C)C2CC1(O)NC(=O)O2 (stereo not shown) [20-Demethoxy-20-hydroxymaytansinol 3-picolinate] | 10 | ≥ 4 | 
3 | COC1C=CC=C(C)Cc2cc(O)cc(c2)N(C)C(=O)CC(OC(=O)C(C)C)C2(C)OC2C(C)C2CC1(O)NC(=O)O2 (stereo not shown) [20-Demethoxy-20-hydroxydechloromaytansinol 3-isobutyrate] | 16 |  | 
4 | COC1C=CC=C(C)Cc2cc(O)c(Cl)c(c2)N(C)C(=O)CC(OC(=O)c2ccc(Cl)cc2)C2(C)OC2C(C)C2CC1(O)NC(=O)O2 (stereo not shown) [20-Demethoxy-20-hydroxymaytansinol 3-p-chlorobenzoate] | 10 | 4 (≈ 5.8 µM) | 
5 | COC1C=CC=C(C)Cc2cc(O)c(Cl)c(c2)N(C)C(=O)CC(OC(=O)C2CCCCC2)C2(C)OC2C(C)C2CC1(O)NC(=O)O2 (stereo not shown) [20-Demethoxy-20-hydroxymaytansinol 3-cyclohexanecarboxylate] | 20 |  | 
6 | COC1C=CC=C(C)Cc2cc(O)c(Cl)c(c2)N(C)C(=O)CC(OC(=O)[C@H](C)N(C)C(=O)C(C)C)C2(C)OC2C(C)C2CC1(O)NC(=O)O2 (stereo partly shown) [20-Demethoxy-20-hydroxymaytanbutine (L)] | 24 |  | 
7 | COC1C=CC=C(C)Cc2cc(O)c(Cl)c(c2)N(C)C(=O)CC(OC(=O)[C@H](C)N(C)C(=O)CC(C)C)C2(C)OC2C(C)C2CC1(O)NC(=O)O2 (stereo partly shown) [20-Demethoxy-20-hydroxymaytanvaline (L)] | 24 | 2 (≈ 2.78 µM) | 
8 | COC1C=CC=C(C)Cc2cc(O)c(Cl)c(c2)N(C)C(=O)CC(OC(=O)Nc2ccccc2)C2(C)OC2C(C)C2CC1(O)NC(=O)O2 (stereo not shown) [20-Demethoxy-20-hydroxymaytansinol 3-N-phenylcarbamate] | < 8 | ≥ 8 | 
9 | COc1cc2cc(c1Cl)N(C)C(=O)CC(OC(=O)C(C)C)C1(C)OC1C(C)C1CC(O)(NC(=O)O1)C(OC)C=CC=C(C)C2 (stereo not shown) [Ansamitocin P-3, reference compound] |  |  | Solubility in chloroform, ethyl acetate, acetone, ethanol, methanol, pyridine, tetrahydrofuran & dimethylsulfoxide (Solubility): Soluble; Solubility in petr. ether, n-hexane & water (Solubility): Insoluble
10 | CCC(=O)OC1CC(=O)N(C)c2cc(cc(O)c2Cl)CC(C)=CC=CC(OC)C2(O)CC(OC(=O)N2)C(C)C2OC12C (stereo not shown) [20-Demethoxy-20-hydroxymaytansinol propionate] | 15 |  | Solubility in benzene, ether (Solubility): Slightly soluble; Solubility in chloroform, ethyl acetate, tetrahydrofuran, acetone, ethanol, methanol (Solubility): Soluble; Solubility in pyridine, dimethyl sulfoxide (Solubility): Freely soluble
11 | CCCC(=O)OC1CC(=O)N(C)c2cc(cc(O)c2Cl)CC(C)=CC=CC(OC)C2(O)CC(OC(=O)N2)C(C)C2OC12C (stereo not shown) [PDM-3', 20-demethoxy-20-hydroxymaytansinol 3-butyrate] | 21 | 2 (≈ 3.22 µM) | 
12 | COC1C=CC=C(C)Cc2cc(O)c(Cl)c(c2)N(C)C(=O)CC(OC(=O)C(C)C)C2(C)OC2C(C)C2CC1(O)NC(=O)O2 (stereo not shown) [PDM-3] |  |  | zone of inhibition at 100 µg/mL [1, 4]: 21 mm; MIC (Tetrahymena pyriformis W; serial dilution, 28° C., 44 to 48 hours, pH 7.0, read-out: Antiprotozoan activity, MIC): 2 µg/mL (≈ 3.22 µM)
13 | COC1C=CC=C(C)Cc2cc(O)c(Cl)c(c2)N(C)C(=O)CC(OC(=O)CC(C)C)C2(C)OC2C(C)C2CC1(O)NC(=O)O2 (stereo not shown) [PDM-4, 20-demethoxy-20-hydroxymaytansinol 3-isovalerate] | 24 | 1 (≈ 1.57 µM) | Solubility in benzene, ether (Solubility): Slightly soluble; Solubility in chloroform, ethyl acetate, tetrahydrofuran, acetone, ethanol, methanol (Solubility): Soluble; Solubility in pyridine, dimethyl sulfoxide (Solubility): Freely soluble
14 | COC1C=CC=C(C)Cc2cc(O)c(Cl)c(c2)N(C)C(=O)CC(OC(=O)Cc2ccccc2)C2(C)OC2C(C)C2CC1(O)NC(=O)O2 (stereo not shown) [20-Demethoxy-20-hydroxymaytansinol 3-phenylacetate] |  |  | zone of inhibition at 100 µg/mL [1, 4]: 23 mm; Antifungal activity, (φ mm), zone of growth inhibition ([1]; paper disc (8 mm diam.), 0.02 ml of a 100 μg/ml solution): 15 mm
15 | CCCCCC(=O)OC1CC(=O)N(C)c2cc(cc(O)c2Cl)CC(C)=CC=CC(OC)C2(O)CC(OC(=O)N2)C(C)C2OC12C (stereo not shown) [20-Demethoxy-20-hydroxymaytansinol 3-hexanoate] | 21 |  | 
16 | COC1C=CC=C(C)Cc2cc(O)c(Cl)c(c2)N(C)C(=O)CC(O)C2(C)OC2C(C)C2CC1(O)NC(=O)O2 (stereo not shown) [20-Demethoxy-20-hydroxymaytansinol] | < 8 | 40 (≈ 72.6 µM) | Solubility in benzene, ether (Solubility): Slightly soluble; Solubility in chloroform, ethyl acetate, tetrahydrofuran, acetone, ethanol, methanol (Solubility): Soluble; Solubility in pyridine, dimethyl sulfoxide (Solubility): Freely soluble
17 | COC1C=CC=C(C)Cc2cc(O)c(Cl)c(c2)N(C)C(=O)CC(OC(=O)[C@H](C)N(C)C(C)=O)C2(C)OC2C(C)C2CC1(O)NC(=O)O2 (stereo partly shown) [20-Demethoxy-20-hydroxymaytansine (L)] |  | > 16 | 
18 | COC1C=CC=C(C)Cc2cc(O)c(Cl)c(c2)N(C)C(=O)CC(OC(C)=O)C2(C)OC2C(C)C2CC1(O)NC(=O)O2 (stereo not shown) [20-Demethoxy-20-hydroxymaytanacine] | 10 | 10 (≈ 16.9 µM) | Solubility in benzene, ether (Solubility): Slightly soluble; Solubility in chloroform, ethyl acetate, tetrahydrofuran, acetone, ethanol, methanol (Solubility): Soluble; Solubility in pyridine, dimethyl sulfoxide (Solubility): Freely soluble
19 | COc1cc2cc(c1Cl)N(C)C(=O)CC(OC(=O)CC(C)C)C1(C)OC1C(C)C1CC(O)(NC(=O)O1)C(OC)C=CC=C(C)C2 (stereo not shown) [Ansamitocin P-4, reference compound] |  |  | Solubility in chloroform, ethyl acetate, acetone, ethanol, methanol, pyridine, tetrahydrofuran & dimethylsulfoxide (Solubility): Soluble; Solubility in petr. ether, n-hexane & water (Solubility): Insoluble
